# Reference: paper PMC4430599, “Population pharmacokinetics of intravenous and oral panobinostat in patients with hematologic and solid tumors” (European Journal of Clinical Pharmacology, 2015)
# How the values were obtained:
# [1] = design: method as in PMID 25939707; conditions: cited from earlier work
# [2] = design: method as in PMID 16899611; conditions: IV, highest dose administered 14 mg/m^2; refractory hematologic tumors; cited from earlier work
# [3] = design: method as in PMID 22864948; conditions: cited from earlier work
# plasma protein = conditions: independent of the drug concentration in plasma; no reference given; cited from earlier work
# [4] = Population pharmacokinetic analysis (NONMEM), second final model; assay type: in vivo, patients
# Source text: (§1) A population PK data set was constructed from 581 patients with advanced hematologic and solid tumors who participated in 14 phase 1 and phase 2 studies of panobinostat (Table 1). Studies A2101 and A2102 used IV panobinostat, whereas all other studies examined oral formulations of panobinostat. The CSF was used in two of the oral panobinostat studies, B2101and B2102, whereas the remaining studies used the FMI formulation. The two phase 1 dose-escalation studies of IV panobinostat used doses of 1.2 to 20 mg/m^2 daily administered under various intermittent regimens. In three phase 1 dose-escalation studies, patients received oral panobinostat at doses ranging from 10 to 80 mg/day (administered weekly on days 1, 3, and 5; or every other week; or on days 1 and 4 every week). In five phase 2 studies, patients with cutaneous T cell lymphoma, chronic myeloid leukemia, and multiple myeloma received 20 mg panobinostat orally per day on days 1, 3, and 5 weekly. In three clinical pharmacology studies, patients received oral panobinostat at 20 mg under various regimens for study-specific purposes: in cycle 1 followed by 20 mg per day (days 1, 3, and 5 weekly) or 45 mg (days 1 and 4 weekly) in subsequent cycles. In a phase 2 study of Hodgkin lymphoma, patients received 40 mg panobinostat on days 1, 3, and 5 weekly.
# (§2) PK sampling generally occurred from predose through 48 h after each oral dose or predose through 24 h after each IV dose. Panobinostat was precipitated from plasma samples, evaporated to dryness, reconstituted with 10 % aqueous acetonitrile (containing 0.2 % formic acid), and analyzed by liquid chromatography–tandem mass spectrometry assay. The assay was linear from 0.5 to 500 ng/mL [15], and the bias and coefficient of variation (CV) values of the quality-control sample results ranged from −0.7 to 0.7 % and 2.3 to 11.6 %, respectively. The lower limit of quantification of panobinostat was 0.5 ng/mL for all studies except B2201 and B2203, for which it was 0.1 ng/mL. Values below the lower limit of quantification (6 % of the total) were excluded.
# (§3) The model was developed based on the methods described by Wahlby and colleagues. Scatterplots used to visualize the plasma concentration vs. time profile were generated using R version 2.8.1 and SAS version 9.2. PK model building was conducted using the first-order conditional estimation method with INTERACTION (FOCEI) option, using the default three significant digits for convergence, within the software program nonlinear mixed-effect modeling (NONMEM) extended version VI and version VII. Random interindividual variability parameters were estimated using exponential parameterization. The exponential error models ensured that parameter estimates were within reasonable physiological bounds; negative values were not possible. Model selection criteria were based on both objective function values (OFVs), as generated by NONMEM, and graphic diagnostic plots. For each model analyzed, NONMEM calculated the minimum value of the OFV—a statistic that, up to an additive constant, is minus twice the log likelihood of the data. When two models are nested and the additional parameters of the larger model are not needed, the difference in their minimum OFV is asymptotically χ^2 distributed, with the number of degrees of freedom equal to the number of parameters not common to the two models. The likelihood ratio test compared the two models on the basis of the difference in their OFV values.
# PK data from both the IV and oral routes were fitted simultaneously in order to allow for estimation of the oral bioavailability. Several models were explored, including two-compartment and three-compartment models with first-order elimination. […]
# [5] = Population pharmacokinetic analysis (NONMEM), first final model; assay type: in vivo, patients
# Source text: as §1, §2
# The data sets for modeling were prepared using SAS version 9.2. The time of panobinostat dosing or collection of blood was computed based on the date and time when available. When the date or time was unknown, collection times were estimated based on time of examinations or schedule in the protocol. Demographic information, including age, body weight, height, sex, and race, was collected at screening and used in the analysis. […] BSA (m^2) was computed via the Gehan–George formula as 234.94×Weight^0.515×Height^0.422/10000 where weight is in kilograms and height is in centimeters. […] was computed via the Cockroft–Gault formula as 140−Age×Weight×0.85forfemales/72×Creatinine/88.4 where creatinine was in micromoles per liter.
# as §3, with “When two models are nested and the additional parameters of the larger model are not needed, the difference in their minimum OFV is asymptotically χ^2 distributed, with the number of degrees of freedom equal to the number of parameters not common to the two models. The likelihood ratio test compared the two models on the basis of the difference in their OFV values.” left out
# [6] = design: method as in ref 22 (a number printed in a supplementary file, which may have a reference list of its own: not looked up in the article's list); conditions: second final model; allometric exponent of weight on V2, assumed, no bootstrap; cited from earlier work
# [7] = design: method as in ref 17 = [17]; 17. Woo MM, Culver K, Li W, Liu A, Scott J, Parker K, Jalaluddin M, Laird G, Cooper MR, Schran HF (2008) Panobinostat (LBH589) pharmacokinetics (PK): implications for clinical safety and efficacy. Ann; conditions: oral, 60 mg; cited from earlier work
# CYP3A4 = tested on: CYP3A4; design: method as in PMID 21706316; conditions: coadministered CYP3A4 inhibitor; cited from earlier work
# [8] = design: method as in PMID 25377157; conditions: patients with solid tumors with normal renal function; cited from earlier work
compound,measurement,setting,value
Cc1[nH]c2ccccc2c1CCNCc1ccc(/C=C/C(=O)NO)cc1 [panobinostat],panobinostat exposure with liver impairment,[1],significant increases
same,"maximum concentration (Cmax, mean ± SD)",[2],565.6 ± 450.9 ng/mL
same,number of circulating metabolites,[3],approximately 40
same,plasma protein binding,plasma protein,90%
same,"OM.CLV2 (Omega 2,1)",[4]; covariance CL-V2,0.151
same,"OM.Q3V3 (Omega 4,3)",[4]; covariance Q3-V3,0.505
same,"OM.Q4V4 (Omega 6,5)",[4]; covariance Q4-V4,0.556
same,Q3.AGE,[4]; exponent of (age/61) on Q3,0.410
same,Q4.AGE,[4]; exponent of (age/61) on Q4,0.212
same,V2.AGE,[4]; exponent of (age/61) on V2,-0.005
same,V3.AGE,[4]; exponent of (age/61) on V3,0.713
same,V4.AGE,[4]; exponent of (age/61) on V4,0.530
same,bioavailability,"[4]; human, plasma, oral, fraction, read-out: F1 (bioavailability)",19.4%
same,clearance,"[4]; human, plasma, other: intravenous and oral, fitted simultaneously, reference weight 70 kg, age 61, Caucasian",481 mL/min
same,"OM.Q3 (Omega 3,3)",[4]; interindividual variance of Q3,0.666
same,"OM.Q4 (Omega 5,5)",[4]; interindividual variance of Q4,0.497
same,"OM.V2 (Omega 2,2)",[4]; interindividual variance of V2,1.668
same,"OM.V3 (Omega 4,4)",[4]; interindividual variance of V3,0.441
same,"OM.V4 (Omega 6,6)",[4]; interindividual variance of V4,0.700
same,V2.ASIAN,"[4]; multiplicative factor on V2, Asian vs Caucasian",2.060
same,V2.BLACK,"[4]; multiplicative factor on V2, black vs Caucasian",1.817
same,V2.OTHER,"[4]; multiplicative factor on V2, other race vs Caucasian",0.835
same,V3 (peripheral volume),"[4]; reference weight 70 kg, age 61",71.874 L
same,V4 (peripheral volume),"[4]; reference weight 70 kg, age 61",803.193 L
same,V2,"[4]; reference weight 70 kg, age 61, Caucasian",30.862 L
same,dose proportionality of PK,"[5]; dose range of 10 to 80 mg across the 14 studies, CL and V2 related to dose",dose proportional
same,K23,[5]; first final model,1.810 h⁻¹
same,K24,[5]; first final model,1.424 h⁻¹
same,K32,[5]; first final model,0.507 h⁻¹
same,K42,[5]; first final model,0.040 h⁻¹
same,interindividual (inter-patient) variability in clearance,[5]; first final model,74%
same,"OM.CLV2 (Omega 2,1)","[5]; first final model, covariance CL-V2",0.178
same,V2.BSA,"[5]; first final model, exponent of (BSA/1.9) on V2",1.359
same,V2.AGE,"[5]; first final model, exponent of (age/61) on V2",0.396
same,"OM.V2 (Omega 2,2)","[5]; first final model, interindividual variance of V2",0.334
same,V2.ASIAN,"[5]; first final model, multiplicative factor on V2, Asian vs Caucasian",1.373
same,V2.BLACK,"[5]; first final model, multiplicative factor on V2, black vs Caucasian",1.241
same,V2.OTHER,"[5]; first final model, multiplicative factor on V2, other race vs Caucasian",1.127
same,F1 (bioavailability),"[5]; first final model, oral, fraction",0.214
same,CL (clearance),"[5]; first final model, patient with BSA 1.9 m^2",33.085 L/h
same,V2 (volume of the central compartment),"[5]; first final model, reference BSA 1.9 m^2, age 61, Caucasian",24.838 L
same,clearance,"[5]; human, plasma, other: IV and oral routes fitted simultaneously, first final model, patient with BSA 1.9 m^2, read-out: CL (clearance) (converted)",552 mL/min
same,half-life,"[5]; human, plasma, other: IV and oral routes fitted simultaneously, calculated based on the final parameter estimates, read-out: terminal half-life (converted)",~37 h
same,bioavailability,"[5]; human, plasma, first final model, oral, read-out: absolute bioavailability",21.4%
same,V2.WT,[6],1.000
same,mean Cmax,[7],71 ng/mL
same,panobinostat exposure with ketoconazole,CYP3A4,significant increases
same,fraction excreted unchanged in the urine,[8],< 2.5%
